According to paper PMC10169810, “Ligand-induced activation and G protein coupling of prostaglandin F2α receptor” (Nature Communications, 2023):
Values joined by “and” are separate entries in the source; they are usually repeats but may differ in a detail not shown here. Equal entries are not always repeated.

Tests used:
[1] = target: T1, FP W185A (Homo sapiens, UniProt P43088, W185A); test: IP-One accumulation assay, FP W185A mutant; assay type: cell-based; settings: W185A mutant vs WT FP; IP1 accumulation, AD293 cells; single values of n = 3 independent samples
T1 construct: Flag; expressed in transfected cells; host or cells: AD293 cells
Description: (§1) IP-One production was measured using the IP-One HTRF kit (Cisbio)[50]. Briefly, AD293 cells (Agilent) were grown to a density of 400,000–500,000 cells per mL and then […] with separate plasmids at a suitable concentration. The culture was collected by centrifugation 24 h after incubation at 37 °C in 5% CO2 with a Stimulation Buffer. The cell suspension was then dispensed in a white 384-well plate at a volume of 7 μl per well before adding 7 μl of ligands. The mixture was incubated for 1 h at 37 °C. IP-One-d2 and anti-IP-One Cryptate dissolved in Lysis Buffer (3 μl each) were subsequently added and incubated for 15-30 min at room temperature before measurement. Intracellular IP-One measurement was carried out with the IP-One HTRF kit and EnVision multi-plate reader (PerkinElmer) according to the manufacturer’s instructions. Data were normalized to the baseline response of the ligand. pEC50 Emin, and Emax for each curve were calculated by GraphPad Prism 8.0. ∆pEC50 equals pEC50 of agonists to specific Mutant minus pEC50 of agonists to WT. Data are presented as mean values ± SEM; n = 3 independent samples; n.s. no significant; *p < 0.05; **p < 0.01; ***p < 0.001.

[2] = tested on: FP; design: method as in PMID 10785618; settings: cited from earlier work
[3] = tested on: EP3; design: method as in PMID 10785618; settings: cited from earlier work
[4] = target: T2, FP S33A (Homo sapiens, UniProt P43088, S33A); test: IP-One accumulation assay, FP S33A mutant; assay type: cell-based; settings: S33 to alanine vs WT FP
T2 construct: Flag; expressed in transfected cells; host or cells: AD293 cells
Description: as §1

[5] = target: T3, FP S118F (Homo sapiens, UniProt P43088, S118F); test: IP-One accumulation assay, FP S118F mutant; assay type: cell-based; settings: S118F mutant vs WT FP; IP1 accumulation, AD293 cells; single values of n = 3 independent samples
T3 construct: Flag; expressed in transfected cells; host or cells: AD293 cells
Description: as §1

[6] = target: T4, FP R291A (Homo sapiens, UniProt P43088, R291A); test: IP-One accumulation assay, FP R291A mutant; assay type: cell-based; settings: R291 mutant (alanine) vs WT FP
T4 construct: Flag; expressed in transfected cells; host or cells: AD293 cells
Description: as §1

[7] = target: T5, FP T184A (Homo sapiens, UniProt P43088, T184A); test: IP-One accumulation assay, FP T184A mutant; assay type: cell-based; settings: T184 mutant (alanine) vs WT FP
T5 construct: Flag; expressed in transfected cells; host or cells: AD293 cells
Description: as §1

[8] = tested on: EP1; design: method as in PMID 10785618; settings: cited from earlier work
[9] = target: T6, FP M115A (Homo sapiens, UniProt P43088, M115A); test: IP-One accumulation assay, FP M115A mutant; assay type: cell-based; settings: M115 to alanine vs WT FP
T6 construct: Flag; expressed in transfected cells; host or cells: AD293 cells
Description: as §1

[10] = target: T7, FP S118N (Homo sapiens, UniProt P43088, S118N); test: IP-One accumulation assay, FP S118N mutant; assay type: cell-based
T7 construct: Flag; expressed in transfected cells; host or cells: AD293 cells
Description: as §1

[11] = target: T8, FP I298A (Homo sapiens, UniProt P43088, I298A); test: IP-One accumulation assay, FP I298A mutant; assay type: cell-based; settings: I298A mutant vs WT FP; IP1 accumulation, AD293 cells; single values of n = 3 independent samples
T8 construct: Flag; expressed in transfected cells; host or cells: AD293 cells
Description: as §1

[12] = target: T9, FP Y92A (Homo sapiens, UniProt P43088, Y92A); test: IP-One accumulation assay, FP Y92A mutant; assay type: cell-based; settings: Y92 mutant (alanine) vs WT FP
T9 construct: Flag; expressed in transfected cells; host or cells: AD293 cells
Description: as §1

[13] = target: T10, FP S118A (Homo sapiens, UniProt P43088, S118A); test: IP-One accumulation assay, FP S118A mutant; assay type: cell-based
T10 construct: Flag; expressed in transfected cells; host or cells: AD293 cells
Description: as §1

[14] = target: T11, FP F265A (Homo sapiens, UniProt P43088, F265A); test: IP-One accumulation assay, FP F265A mutant; assay type: cell-based; settings: F265A mutant vs WT FP; IP1 accumulation, AD293 cells; single values of n = 3 independent samples
T11 construct: Flag; expressed in transfected cells; host or cells: AD293 cells
Description: as §1

[15] = target: T12, FP F205A (Homo sapiens, UniProt P43088, F205A); test: IP-One accumulation assay, FP F205A mutant; assay type: cell-based; settings: F205A mutant vs WT FP; IP1 accumulation, AD293 cells; single values of n = 3 independent samples
T12 construct: Flag; expressed in transfected cells; host or cells: AD293 cells
Description: as §1

[16] = target: T13, FP Q297A (Homo sapiens, UniProt P43088, Q297A); test: IP-One accumulation assay, FP Q297A mutant; assay type: cell-based; settings: Q297A mutant vs WT FP; IP1 accumulation, AD293 cells; single values of n = 3 independent samples
T13 construct: Flag; expressed in transfected cells; host or cells: AD293 cells
Description: as §1

[17] = target: T14, FP I290A (Homo sapiens, UniProt P43088, L290A); test: IP-One accumulation assay, FP I290A mutant; assay type: cell-based; settings: I290A mutant vs WT FP; IP1 accumulation, AD293 cells; single values of n = 3 independent samples
T14 construct: Flag; expressed in transfected cells; host or cells: AD293 cells
Description: as §1

[18] = target: T15, FP T294A (Homo sapiens, UniProt P43088, T294A); test: IP-One accumulation assay, FP T294A mutant; assay type: cell-based
T15 construct: Flag; expressed in transfected cells; host or cells: AD293 cells
Description: as §1

T10 sequence (P43088 whole entry S118A): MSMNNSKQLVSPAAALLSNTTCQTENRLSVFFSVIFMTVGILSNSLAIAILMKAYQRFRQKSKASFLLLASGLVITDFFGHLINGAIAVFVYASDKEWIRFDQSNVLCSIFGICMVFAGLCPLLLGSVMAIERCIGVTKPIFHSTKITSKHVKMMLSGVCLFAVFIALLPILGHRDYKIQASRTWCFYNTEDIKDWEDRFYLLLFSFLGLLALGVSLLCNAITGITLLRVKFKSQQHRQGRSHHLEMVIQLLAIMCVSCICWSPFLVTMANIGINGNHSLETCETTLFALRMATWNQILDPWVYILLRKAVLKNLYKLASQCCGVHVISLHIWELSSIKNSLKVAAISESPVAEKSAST
T12 sequence (P43088 whole entry F205A): as the sequence (P43088 whole entry S118A) above, with A118S, F205A counted along it
T3 sequence (P43088 whole entry S118F): as the sequence (P43088 whole entry S118A) above, with A118F counted along it
T15 sequence (P43088 whole entry T294A): as the sequence (P43088 whole entry S118A) above, with A118S, T294A counted along it
T14 sequence (P43088 whole entry L290A): as the sequence (P43088 whole entry S118A) above, with A118S, L290A counted along it
T7 sequence (P43088 whole entry S118N): as the sequence (P43088 whole entry S118A) above, with A118N counted along it
T8 sequence (P43088 whole entry I298A): as the sequence (P43088 whole entry S118A) above, with A118S, I298A counted along it
T13 sequence (P43088 whole entry Q297A): as the sequence (P43088 whole entry S118A) above, with A118S, Q297A counted along it
T1 sequence (P43088 whole entry W185A): as the sequence (P43088 whole entry S118A) above, with A118S, W185A counted along it
T11 sequence (P43088 whole entry F265A): as the sequence (P43088 whole entry S118A) above, with A118S, F265A counted along it
T4 sequence (P43088 whole entry R291A): as the sequence (P43088 whole entry S118A) above, with A118S, R291A counted along it
T5 sequence (P43088 whole entry T184A): as the sequence (P43088 whole entry S118A) above, with A118S, T184A counted along it
T9 sequence (P43088 whole entry Y92A): as the sequence (P43088 whole entry S118A) above, with Y92A, A118S counted along it
T6 sequence (P43088 whole entry M115A): as the sequence (P43088 whole entry S118A) above, with M115A, A118S counted along it
T2 sequence (P43088 whole entry S33A): as the sequence (P43088 whole entry S118A) above, with S33A, A118S counted along it

Structure (SMILES): O=C(O)CCC/C=C\C[C@@H]1[C@@H](CC[C@@H](O)CCc2ccccc2)[C@H](O)C[C@@H]1O [LTPA, Latanoprost acid]
- ∆pEC50 (pEC50 of agonist to mutant minus pEC50 to WT) [1]: -2.9 and -2.7
- selectivity enhancement compared to PGF2α ([2]; FP versus EP1 and EP3): more than 100 times
- EC50 ([2]; FP): 0.0036 µM
- EC50 [3]: 17 µM
- effect of mutation on agonist affinity / potency (in words) [4]: significantly decreased the potency
- ∆pEC50 (pEC50 of agonist to mutant minus pEC50 to WT) [5]: -1.0 and -0.9 and -0.8
- effect of mutation on agonist activity / potency (in words) [6]: significantly decreased the potency
- effect of mutation on agonist activity / potency (in words) [7]: significantly decreased the potency
- EC50 [8]: 6.9 µM
- effect of mutation on agonist potency (in words) [9]: significantly decreased the potency
- ∆pEC50 (pEC50 of agonist to mutant minus pEC50 to WT) ([10]; S118N mutant vs WT FP, IP1 accumulation, AD293 cells, single values of n = 3 independent samples): -1.0 and -1.1 and -1.2
- effect of mutation on agonist potency (in words) ([10]; S118 to asparagine vs WT FP): significantly reduced the potency
- ∆pEC50 (pEC50 of agonist to mutant minus pEC50 to WT) [11]: -1.8 and -2.1
- effect of mutation on agonist activity / potency (in words) [12]: significantly decreased the potency
- ∆pEC50 (pEC50 of agonist to mutant minus pEC50 to WT) ([13]; S118A mutant vs WT FP, IP1 accumulation, AD293 cells, single values of n = 3 independent samples): -1.0 and -0.9
- effect of mutation on agonist potency (in words) ([13]; S118 to alanine vs WT FP): significantly reduced the potency
- ∆pEC50 (pEC50 of agonist to mutant minus pEC50 to WT) [14]: -2.5 and -2.2
- ∆pEC50 (pEC50 of agonist to mutant minus pEC50 to WT) [15]: -2.3 and -2.1 and -2.2
- ∆pEC50 (pEC50 of agonist to mutant minus pEC50 to WT) [16]: -1.5 and -1.4
- ∆pEC50 (pEC50 of agonist to mutant minus pEC50 to WT) [17]: -1.1 and -1.3 and -1.0
- ∆pEC50 (pEC50 of agonist to mutant minus pEC50 to WT) ([18]; T294A mutant vs WT FP, IP1 accumulation, AD293 cells, single values of n = 3 independent samples): -2.0 and -1.8 and -1.9
- effect of mutation on agonist affinity / potency (in words) ([18]; T294 to alanine vs WT FP): significantly decreased the potency
